The values that follow come from patent US8609892B2 (Eli Lilly and Company, priority 2004, dated 2013).

The target of this test is cloned human glucagon receptor (Homo sapiens (Human), UniProt P47871). Briefly: Glucagon Receptor (hGlucR) Binding Assay. The settings on record: I-125 glucagon competition, SPA, 293HEK membranes, Cheng-Prusoff.
Sequence of cloned human glucagon receptor (P47871 26-477): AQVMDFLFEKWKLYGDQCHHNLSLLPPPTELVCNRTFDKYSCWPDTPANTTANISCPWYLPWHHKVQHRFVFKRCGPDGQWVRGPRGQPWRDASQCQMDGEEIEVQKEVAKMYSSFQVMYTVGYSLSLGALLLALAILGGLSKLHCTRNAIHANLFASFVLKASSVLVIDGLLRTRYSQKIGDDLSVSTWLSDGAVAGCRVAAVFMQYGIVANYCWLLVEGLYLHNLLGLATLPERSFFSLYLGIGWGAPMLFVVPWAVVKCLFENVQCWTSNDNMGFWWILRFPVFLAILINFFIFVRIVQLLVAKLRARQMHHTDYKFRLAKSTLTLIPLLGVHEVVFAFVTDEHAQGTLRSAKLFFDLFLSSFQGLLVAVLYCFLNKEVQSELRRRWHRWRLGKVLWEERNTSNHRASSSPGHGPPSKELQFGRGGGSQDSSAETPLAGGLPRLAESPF

Experimental: This plasmid DNA was transfected into 293 HEK cells and selected with 200 ug/mL Hygromycin.
Crude plasma membranes are prepared using cells from suspension culture. The cells are lysed on ice in hypotonic buffer containing 25 mM Tris HCL, pH 7.5, 1 mM MgCl2, DNAse1, 20 u/mL, and Roche Complete Inhibitors-without EDTA. The cell suspension is homogenized with a glass dounce homogenizer using a Teflon pestle for 25 strokes. The homogenate is centrifuged at 4 degrees C. at 1800×g for 15 mins. The supernate is collected and the pellet is resuspended in hypotonic buffer and rehomogenized. The mixture is centrifuged at 1800×g for 15 mins. The second supernate is combined with the first supernate. The combined supernates are recentrifuged at 1800×g for 15 mins to clarify. The clarified supernate is transferred to high speed tubes and centrifuged at 25000×g for 30 minutes at 4 degrees C. The membrane pellet is resuspended in homogenization buffer and stored as frozen aliquots at −80 degree C. freezer until needed.
The specific activity is 2200 Ci/mmol.
The binding buffer contains 25 mM Hepes, pH 7.4, 2.5 mM CaCl2, 1 mM MgCl2, 0.1% fatty acid free BSA, (ICN), 0.003% tween-20, and Roche Complete Inhibitors without EDTA. […] Test compounds are dissolved in DMSO and serially diluted in DMSO. […] Plates are read with a MicroBeta after 14 hours of settling time at room temp. […]

For orientation: Ki means the equilibrium dissociation constant of an inhibitor or competing ligand from its target. Low values mean higher affinity, high ones lower affinity. With `Cc1ccc(-c2ccc(SC(CC(C)C)c3ccc(C(=O)NCCC(=O)O)cc3)cc2)cc1C` (centres unmarked), affinity was put at a Ki of 265 nM. That is a sub-micromolar value.
In turn, `CCCC(Oc1ccc(-c2ccc(CC(C)C)cc2)nc1)c1ccc(C(=O)NCCC(=O)O)cc1` (centres unmarked) yielded an inhibitory constant (Ki) of 254 nM.
